From patent US10100064B2, “Purine inhibitors of human phosphatidylinositol 3-kinase delta” (Merck Sharp & Dohme Corp., priority 2014, dated 2018)

How the values were obtained:
[1] = target: T1, PI3Kdelta (Homo sapiens, UniProt O00329); experiment: HTRF PI3K biochemical assay, delta isoform; conditions: 0.3 nM enzyme, 100 uM ATP, 5 uM PIP2, form screened (Neutral or TFA salt) given per compound
T1 construct: purchased Upstate; Millipore 14-604
Description: (§1) HTRF PI3K Biochemical Assay to Measure Intrinsic Potency of Compound Inhibitors
(§2) The PI3-Kinase biochemical assays were developed to measure the intrinsic potency and compound dependent inhibition of the alpha, beta, delta, and gamma PI3K isoform enzymes. This assay was developed and further optimized from a kit produced by Upstate (Millipore catalog #33-047) and has been configured for HTS and SAR screening. Briefly, this procedure exploits the exquisite specificity and high affinity binding of […] phosphatidyl(3,4,5)triphosphate (PIP3) to the GRP1 pleckstrin homology (PH) domain to generate the signal. In the absence of PIP3, an HTRF (Homogeneous Time-Resolved Fluorescence energy transfer) complex is formed consisting of europium (Eu)-labeled anti-GST, GSTtagged GRP1-PH domain, biotin-PIP3 and streptavidin conjugated APC. The native PIP3 produced by PI3-Kinase activity disrupts in a competitive manner the biotin-PIP3 from the PH domain, resulting in the loss of energy transfer (HTRF complex) and a decrease in the signal. The format of this assay is the same for all 4 isoforms of PI3K; the differences lie in the concentration of enzyme used to achieve robust assay window. The alpha, beta, and delta assays are run at 0.5, 1, and 0.3 nM enzymes and the gamma assay is run at 5 nM enzyme. The ATP concentration is 100 uM in the alpha, beta, and delta assays and 50 uM ATP in the gamma assay. All reactions are run at 5 uM PIP2.
(§3) Compounds are serially diluted (3-fold in 100% DMSO) across a 384-well polypropylene source plated from column 3 to column 12 and column 13 to column 22, to yield 10 concentration dose response for each test compound. Columns 1, 2, 23 and 24 contain either only DMSO or pharmacological known control inhibitor. Once titrations are made, 2.5 nL of the compounds on 384 well plates are reformatted and transferred by acoustic dispense in quadruplicates to a 1536 assay plate (Greiner) to assay across all four PI3K isoform enzymes.
(§4) The PI3-Kinase biochemical assay was optimized using the HTRF kit provided by Upstate (Millipore). The assay kit contains six reagents: 1) 4× Reaction Buffer; 2) native PIP2 (substrate); 3) Stop (EDTA); 4) Detection Mix A (Streptavidin-APC); 5) Detection Mix B (Eu-labeled Anti-GST plus GST-tagged PH-domain); 6) Detection Mix C. In addition, the following items were obtained or purchased; PI3Kinase (alpha 14-602, beta 14-603, gamma 14-558 and delta 14-604 from Upstate; Millipore), dithiothreitol (Sigma, D-5545), Adenosine-5′ triphosphate (InVitrogen, Cat#AS001A), native PIP3 (PI(3,4,5)P3, diC8, H^+, CELLSIGNALS, INC. Cat #907) DMSO (Sigma, 472301).
(§5) PI3Kinase Reaction Buffer is prepared by dilution the stock 1:4 with de-ionized water. DTT, PIP2 and Biotin-PIP3 were added to 1536 assay plate at a final concentration of 5 mM, […] 25 nM on the day of use. Enzyme addition and compound pre-incubation are initiated by the addition of 1.25 ul of PI3K (at twice its final concentration) in the 1× reaction buffer to all wells using a BioRaptor. Plates are incubated at room temperature for 15 minutes. Reactions are initiated by addition of 1.25 ul of 2× substrate solution (PIP2 and ATP in 1× reaction buffer) using BioRaptor. Plates are incubated in humidified chamber at room temperature for one hour. Reactions are quenched by addition of 0.625 uL of stop solution to all wells using the BioRaptor. The quenched reactions are then processed to detect product formation by adding 0.625 uL of Detection Solution to all wells using the BioRaptor (Detection mix C, Detection Mix A, and Detection Mix B combined together in an 18:1:1 ratio prepared 2 hours prior to use). Following a one hour incubation in the dark, the HTRF signal is measured on the Envision plate reader set for 330 nm excitation and dual emission detection at […]. […]

[2] = target: T2, PI3Kalpha (Homo sapiens, UniProt P42336); experiment: HTRF PI3K biochemical assay, alpha isoform (selectivity versus delta); conditions: relative ratio PI3K-alpha IC50 value / PI3K-delta IC50 value
T2 construct: purchased Upstate; Millipore 14-602
T2 sequence (P42336 whole entry, canonical isoform): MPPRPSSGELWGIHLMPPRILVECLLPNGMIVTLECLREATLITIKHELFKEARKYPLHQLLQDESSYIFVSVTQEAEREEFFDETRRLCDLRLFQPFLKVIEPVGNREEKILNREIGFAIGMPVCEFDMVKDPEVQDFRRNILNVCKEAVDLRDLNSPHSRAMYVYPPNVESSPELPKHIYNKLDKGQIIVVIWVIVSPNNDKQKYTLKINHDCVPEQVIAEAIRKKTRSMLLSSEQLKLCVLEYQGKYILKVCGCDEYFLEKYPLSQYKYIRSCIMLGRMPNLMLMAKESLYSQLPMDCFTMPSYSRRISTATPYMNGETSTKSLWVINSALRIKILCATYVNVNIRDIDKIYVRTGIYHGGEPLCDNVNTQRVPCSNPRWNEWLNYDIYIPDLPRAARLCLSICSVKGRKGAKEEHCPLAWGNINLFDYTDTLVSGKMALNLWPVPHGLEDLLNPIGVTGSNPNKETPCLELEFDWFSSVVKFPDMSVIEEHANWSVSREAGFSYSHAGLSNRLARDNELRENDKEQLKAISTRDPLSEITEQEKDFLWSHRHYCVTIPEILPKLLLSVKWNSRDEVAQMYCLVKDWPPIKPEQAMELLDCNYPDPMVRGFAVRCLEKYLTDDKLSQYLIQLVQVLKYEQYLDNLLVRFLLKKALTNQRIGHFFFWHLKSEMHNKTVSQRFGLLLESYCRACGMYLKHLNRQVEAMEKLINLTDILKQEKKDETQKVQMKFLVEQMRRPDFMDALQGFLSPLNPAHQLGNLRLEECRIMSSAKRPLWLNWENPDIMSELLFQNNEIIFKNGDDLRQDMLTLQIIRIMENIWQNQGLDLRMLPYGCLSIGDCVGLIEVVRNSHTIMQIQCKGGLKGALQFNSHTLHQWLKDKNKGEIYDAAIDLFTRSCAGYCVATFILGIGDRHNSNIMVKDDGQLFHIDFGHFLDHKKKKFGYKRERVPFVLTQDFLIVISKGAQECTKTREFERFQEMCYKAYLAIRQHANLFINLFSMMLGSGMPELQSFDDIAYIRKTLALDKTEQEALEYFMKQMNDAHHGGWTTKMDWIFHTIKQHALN
T2 sequence (P27986 whole entry partner, canonical isoform): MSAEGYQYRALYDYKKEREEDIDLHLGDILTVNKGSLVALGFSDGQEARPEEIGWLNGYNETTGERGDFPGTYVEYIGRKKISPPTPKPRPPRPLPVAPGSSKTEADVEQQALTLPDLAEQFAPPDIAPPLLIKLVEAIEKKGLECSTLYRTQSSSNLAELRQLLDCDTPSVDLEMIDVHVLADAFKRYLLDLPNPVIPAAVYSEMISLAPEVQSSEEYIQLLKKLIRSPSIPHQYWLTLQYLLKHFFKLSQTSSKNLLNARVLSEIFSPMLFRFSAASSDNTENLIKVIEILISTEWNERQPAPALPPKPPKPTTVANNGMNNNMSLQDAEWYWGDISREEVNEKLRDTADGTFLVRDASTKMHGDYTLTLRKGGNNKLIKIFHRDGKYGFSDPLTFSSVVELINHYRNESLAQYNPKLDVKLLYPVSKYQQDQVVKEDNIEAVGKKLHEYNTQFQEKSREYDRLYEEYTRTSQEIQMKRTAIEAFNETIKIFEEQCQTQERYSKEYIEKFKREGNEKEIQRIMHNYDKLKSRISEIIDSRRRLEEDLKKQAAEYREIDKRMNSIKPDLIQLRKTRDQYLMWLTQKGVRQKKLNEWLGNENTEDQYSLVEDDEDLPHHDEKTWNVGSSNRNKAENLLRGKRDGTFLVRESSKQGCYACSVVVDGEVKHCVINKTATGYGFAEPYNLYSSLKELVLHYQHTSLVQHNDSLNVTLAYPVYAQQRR
Description: as §1, §2, §3, §4, §5

T1 sequence (O00329 whole entry, canonical isoform): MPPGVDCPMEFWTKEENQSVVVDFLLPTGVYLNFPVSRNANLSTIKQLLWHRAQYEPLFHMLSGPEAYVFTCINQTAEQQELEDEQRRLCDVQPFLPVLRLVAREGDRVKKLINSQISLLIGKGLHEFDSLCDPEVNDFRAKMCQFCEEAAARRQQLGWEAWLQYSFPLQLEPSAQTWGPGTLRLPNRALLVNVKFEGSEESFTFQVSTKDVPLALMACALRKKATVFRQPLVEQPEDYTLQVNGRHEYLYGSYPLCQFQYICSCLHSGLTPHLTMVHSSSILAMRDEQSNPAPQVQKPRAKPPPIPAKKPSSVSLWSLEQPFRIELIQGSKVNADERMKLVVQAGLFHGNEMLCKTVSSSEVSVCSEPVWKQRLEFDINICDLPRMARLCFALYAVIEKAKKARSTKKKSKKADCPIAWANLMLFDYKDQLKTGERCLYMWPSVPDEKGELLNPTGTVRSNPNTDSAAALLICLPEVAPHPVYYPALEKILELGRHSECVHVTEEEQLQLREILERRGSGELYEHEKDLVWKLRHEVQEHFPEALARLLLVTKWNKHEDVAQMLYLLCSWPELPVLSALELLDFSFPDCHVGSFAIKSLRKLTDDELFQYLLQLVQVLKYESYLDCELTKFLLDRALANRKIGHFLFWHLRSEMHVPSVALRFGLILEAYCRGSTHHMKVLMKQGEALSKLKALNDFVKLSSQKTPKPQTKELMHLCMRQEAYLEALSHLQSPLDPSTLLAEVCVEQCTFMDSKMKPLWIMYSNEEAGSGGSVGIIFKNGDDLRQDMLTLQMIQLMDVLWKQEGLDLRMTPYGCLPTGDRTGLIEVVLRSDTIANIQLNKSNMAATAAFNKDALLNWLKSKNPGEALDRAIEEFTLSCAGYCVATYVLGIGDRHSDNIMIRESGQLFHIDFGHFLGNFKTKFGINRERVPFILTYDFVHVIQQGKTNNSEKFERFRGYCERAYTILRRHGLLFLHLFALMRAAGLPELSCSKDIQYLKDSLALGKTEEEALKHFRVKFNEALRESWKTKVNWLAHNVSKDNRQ
T1 sequence (P27986 whole entry partner, canonical isoform): as the sequence (P27986 whole entry partner, canonical isoform) above

Structure (SMILES)	IC50 [1] [nM]	Selectivity versus PI3Kalpha [2]
CCn1c(-c2cnn(-c3ccccc3)c2)nc2c(NC3CCc4nnc(C5CC5)n4C3)ncnc21 (racemic) [Compound 1-10, (S and R)-N-(3-cyclopropyl-5,6,7,8-tetrahydro[1,2,4]triazolo[4,3-a]pyridin-6-yl)-9-ethyl-8-(1-phenyl-1H-pyrazol-4-yl)-9H-purin-6-amine]	< 1	>10
CCn1c(-c2ccc(C(F)(F)F)nc2)nc2c(NC3CCc4nnc(C5CC5)n4C3)ncnc21 (racemic) [Compound 1-11, (S and R)-N-(3-cyclopropyl-5,6,7,8-tetrahydro[1,2,4]triazolo[4,3-a]pyridin-6-yl)-9-ethyl-8-[6-(trifluoromethyl)pyridin-3-yl]-9H-purin-6-amine]	4.1	>10
CCn1c(-c2ccc(OC)nc2)nc2c(NC3CCc4nnc(C5CC5)n4C3)ncnc21 (racemic) [Compound 1-12, (S and R)-N-(3-cyclopropyl-5,6,7,8-tetrahydro[1,2,4]triazolo[4,3-a]pyridin-6-yl)-9-ethyl-8-(6-methoxypyridin-3-yl)-9H-purin-6-amine]	1.2	>10
CCn1c(-c2cnc(OC)c(F)c2)nc2c(NC3CCc4nnc(C5CC5)n4C3)ncnc21 (racemic) [Compound 1-13, (S and R)-N-(3-cyclopropyl-5,6,7,8-tetrahydro[1,2,4]triazolo[4,3-a]pyridin-6-yl)-9-ethyl-8-(5-fluoro-6-methoxypyridin-3-yl)-9H-purin-6-amine]	1.1	>10
CCn1c(-c2ccc(OC(F)F)nc2)nc2c(NC3CCc4nnc(C5CC5)n4C3)ncnc21 (racemic) [Compound 1-14, (S and R)-N-(3-cyclopropyl-5,6,7,8-tetrahydro[1,2,4]triazolo[4,3-a]pyridin-6-yl)-8-[6-(difluoromethoxy)pyridin-3-yl]-9-ethyl-9H-purin-6-amine]	2.1	>10
CCn1c(-c2cnc(OC)c(C)c2)nc2c(NC3CCc4nnc(C5CC5)n4C3)ncnc21 (racemic) [Compound 1-15, (S and R)-N-(3-cyclopropyl-5,6,7,8-tetrahydro[1,2,4]triazolo[4,3-a]pyridin-6-yl)-9-ethyl-8-(6-methoxy-5-methylpyridin-3-yl)-9H-purin-6-amine]	< 1	>10
CCn1c(-c2ccc(OC(F)(F)F)cc2)nc2c(NC3CCc4nnc(C5CC5)n4C3)ncnc21 (racemic) [Compound 1-16, (S and R)-N-(3-cyclopropyl-5,6,7,8-tetrahydro[1,2,4]triazolo[4,3-a]pyridin-6-yl)-9-ethyl-8-[4-(trifluoromethoxy)phenyl]-9H-purin-6-amine]	3.9	>10
CCn1ncc(-c2nc3c(NC4CCc5nnc(C6CC6)n5C4)ncnc3n2CC)c1C (racemic) [Compound 1-17, (S and R)-N-(3-cyclopropyl-5,6,7,8-tetrahydro[1,2,4]triazolo[4,3-a]pyridin-6-yl)-9-ethyl-8-(1-ethyl-5-methyl-1H-pyrazol-4-yl)-9H-purin-6-amine]	< 1	>10
CCn1c(C(=O)NCC(F)(F)F)nc2c(NC3CCc4nnc(C(C)C)n4C3)ncnc21 (racemic) [Compound 1-37, (S and R)-9-ethyl-6-{[3-(1-methylethyl)-5,6,7,8-tetrahydro[1,2,4]triazolo[4,3-a]pyridin-6-yl]amino}-N-(2,2,2-trifluoroethyl)-9H-purine-8-carboxamide]	12	>10
CCn1c(-c2cnc(C)nc2)nc2c(NC3CCc4c(c(C5CC5)nn4C(=O)OC(C)(C)C)C3)ncnc21 (racemic) [Compound 2-1, (S and R)-tert-butyl 3-cyclopropyl-5-{[9-ethyl-8-(2-methylpyrimidin-5-yl)-9H-purin-6-yl]amino}-4,5,6,7-tetrahydro-1H-indazole-1-carboxylate]	< 1	>10
CCn1c(-c2cnc(C)nc2)nc2c(NC3CCc4c(c(C(C)C)nn4CCN(C)C)C3)ncnc21 (racemic) [Compound 2-3, (S and R)-N-{1-[2-(dimethylamino)ethyl]-3-(1-methylehyl)-4,5,6,7-tetrahydro-1H-indazol-5-yl}-9-ethyl-8-(2-methylpyrimidin-5-yl)-9H-purin-6-amine]	7.4	>10
CCn1c(C(F)F)nc2c(NC3CCc4[nH]nc(C(C)C)c4C3)ncnc21 (racemic) [Compound 2-9, (S and R)-8-(difluoromethyl)-9-ethyl-N-[3-(1-methylethyl)-4,5,6,7-tetrahydro-1H-indazol-5-yl]-9H-purin-6-amine]	60	>10
CCn1c(-c2cnc(C)nc2)nc2c(NC3CCc4c(c(C(C)C)nn4C(C)=O)C3)ncnc21 (racemic) [Compound 2-12, (S and R)-N-[1-acetyl-3-(1-methylethyl)-4,5,6,7-tetrahydro-1H-indazol-5-yl]-9-ethyl-8-(2-methylpyrimidin-5-yl)-9H-purin-6-amine]	15	>10
CCn1c(-c2cnc(C)nc2)nc2c(NC3CCc4c(c(C(C)C)nn4C(=O)c4ccccc4)C3)ncnc21 (racemic) [Compound 2-13, (S and R)-9-ethyl-N-[3-(1-methylethyl)-1-(phenylcarbonyl)-4,5,6,7-tetrahydro-1H-indazol-5-yl]-8-(2-methylpyrimidin-5-yl)-9H-purin-6-amine]	30	>10
CCn1c(-c2cnc(C)nc2)nc2c(NC3CCc4c(c(C(C)C)nn4C(=O)CN(C)C)C3)ncnc21 (racemic) [Compound 2-14, (S and R)-N-{1-[(dimethylamino)acetyl]-3-(1-methylethyl)-4,5,6,7-tetrahydro-1H-indazol-5-yl}-9-ethyl-8-(2-methylpyrimidin-5-yl)-9H-purin-6-amine]	20	>10
CCn1c(-c2cnc(C)nc2)nc2c(NC3CCc4c(c(C(C)C)nn4C(=O)CC(C)(C)C)C3)ncnc21 (racemic) [Compound 2-15, (S and R)-N-[1-(3,3-dimethylbutanoyl)-3-(1-methylethyl)-4,5,6,7-tetrahydro-1H-indazol-5-yl]-9-ethyl-8-(2-methylpyrimidin-5-yl)-9H-purin-6-amine]	78	>10
CCn1c(-c2cnc(C)nc2)nc2c(NC3CCc4c(c(C(C)C)nn4C(=O)OC(C)(C)C)C3)ncnc21 (racemic) [Compound 2-16, (S and R)-tert-butyl 5-{[9-ethyl-8-(2-methylpyrirnidin-5-yl)-9H-purin-6-yl]amino}-3-(1-methylethyl)-4,5,6,7-tetrahydro-1H-indazole-1-carboxylate]	< 1	>10
CCOC(=O)n1nc(C(C)C)c2c1CCC(Nc1ncnc3c1nc(-c1cnc(C)nc1)n3CC)C2 (racemic) [Compound 2-17, (S and R)-ethyl 5-{[9-ethyl-8-(2-methylpyrimidin-5-yl)-9H-purin-6-yl]amino}-3-(1-methylethyl)-4,5,6,7-tetrahydro-1H-indazole-1-carboxylate]	2.3	>10
